In patent US20230101747A1 (Schrödinger, Inc., priority 2019, published 2023):

What follows are compounds tested against T1, Full length human CDC7 protein co-expressed with DBF4 (Homo sapiens, UniProt O00311) (assay: CDC7 kinase biochemical assay (ADP-Glo, PDKtide substrate)). Conditions: 0.1 nM CDC7/DBF4, 1 uM ATP, 10 uM PDKtide, 4 h; read-out: CDC7 ADP-Glo PDKtide IC50.
T1 construct: Full length human CDC7 protein co-expressed with DBF4; purchased SignalChem (China)
Method: CDC7 Kinase Biochemical Assay Protocol:
Full length human CDC7 protein co-expressed with DBF4 was purchased from SignalChem (China). CDC7 kinase activity was determined with PDKtide (SignalChem) as a substrate and by measuring ADP production using the ADP-Glo™ Kinase Assay kit (Promega) following the manufacturers instructions. The kinase reaction was performed using the following conditions: Buffer: 40 mM Tris pH 7.5, 20 mM MgCl2, 0.1 mg/ml BSA and 50 uM DTT. Final reaction mix contained 0.1 nM CDC7/DBF4, 1 uM ATP and 10 uM PDKtide. The kinase reaction time was 4 h. The ADP-Glo signal was measured using an EnVision plate reader (PerkinELmer).
Percent inhibition of CDC7 kinase activity was calculated based on the following formula: […]
SSample: the signal of compounds SHigh ctrl: the signal of high control (DMSO) SLow Ctrl: the signal of low control (positive control CDC7 inhibitor)

T1 sequence (O00311 whole entry): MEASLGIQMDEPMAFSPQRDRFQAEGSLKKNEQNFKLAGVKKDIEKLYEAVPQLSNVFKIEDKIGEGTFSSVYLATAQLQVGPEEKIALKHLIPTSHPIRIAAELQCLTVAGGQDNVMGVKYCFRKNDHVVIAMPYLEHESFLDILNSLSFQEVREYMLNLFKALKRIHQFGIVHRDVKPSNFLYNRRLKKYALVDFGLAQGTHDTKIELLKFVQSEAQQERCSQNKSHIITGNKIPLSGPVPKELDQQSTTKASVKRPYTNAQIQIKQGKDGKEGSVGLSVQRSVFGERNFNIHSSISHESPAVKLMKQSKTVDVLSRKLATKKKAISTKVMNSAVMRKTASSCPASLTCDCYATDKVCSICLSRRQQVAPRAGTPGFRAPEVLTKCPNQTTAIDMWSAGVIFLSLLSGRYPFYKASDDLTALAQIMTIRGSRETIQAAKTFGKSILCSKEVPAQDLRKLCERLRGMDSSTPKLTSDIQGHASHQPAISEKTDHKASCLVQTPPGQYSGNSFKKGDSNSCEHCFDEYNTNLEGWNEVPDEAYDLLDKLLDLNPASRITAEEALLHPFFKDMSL
T1 sequence (Q9UBU7 whole entry partner): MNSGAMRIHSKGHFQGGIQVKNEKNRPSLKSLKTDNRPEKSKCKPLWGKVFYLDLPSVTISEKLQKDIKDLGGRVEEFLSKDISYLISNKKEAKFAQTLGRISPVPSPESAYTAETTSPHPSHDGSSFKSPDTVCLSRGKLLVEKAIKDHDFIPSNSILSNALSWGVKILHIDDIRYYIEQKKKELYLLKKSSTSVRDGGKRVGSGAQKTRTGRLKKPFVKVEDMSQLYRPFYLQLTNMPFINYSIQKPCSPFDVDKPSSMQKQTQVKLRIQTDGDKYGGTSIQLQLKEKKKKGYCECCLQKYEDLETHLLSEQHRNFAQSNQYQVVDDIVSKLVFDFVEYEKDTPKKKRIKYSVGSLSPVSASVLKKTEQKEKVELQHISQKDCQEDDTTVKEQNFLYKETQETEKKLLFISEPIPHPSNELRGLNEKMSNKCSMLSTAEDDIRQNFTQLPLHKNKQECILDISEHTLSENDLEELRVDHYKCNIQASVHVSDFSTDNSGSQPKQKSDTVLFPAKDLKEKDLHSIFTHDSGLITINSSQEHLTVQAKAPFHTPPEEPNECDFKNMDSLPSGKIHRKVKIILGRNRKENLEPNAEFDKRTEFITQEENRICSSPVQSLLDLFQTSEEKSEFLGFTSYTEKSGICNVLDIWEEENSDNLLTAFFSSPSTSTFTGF

SMILES | IC50 [nM]
CC1C(C2CCC2)NC(=O)c2sc(-c3cn[nH]c3)c3c2N1CCO3 (racemic) [Compound 96, 10-cyclobutyl-9-methyl-3-(1H-pyrazol-4-yl)-5-oxa-2-thia-8,11-diazatricyclo[6.4.1.0^4,13] trideca-1(13),3-dien-12-one] | < 1
O=C1NC[C@H](C2CCOCC2)N2CCOc3c(-c4cn[nH]c4)sc1c32 (single isomer, unassigned) [Compound 28] | > 10
COC[C@H]1[C@@H](C2CCC2)NC(=O)c2sc(-c3cn[nH]c3)c3c2N1CCO3 (single isomer, unassigned) [Compound 98] | 1 to 10
COC[C@@H]1[C@H](C2CCC2)NC(=O)c2sc(-c3cn[nH]c3)c3c2N1CCO3 (single isomer, unassigned) [Compound 99] | 1 to 10
O=C1NC(C2CCCCO2)CN2CCCc3c(-c4cn[nH]c4)sc1c32 (single isomer, unassigned) [Compound 107] | < 1
O=C1NC(C2CCCCO2)CN2CCCc3c(-c4cn[nH]c4)sc1c32 (single isomer, unassigned) [Compound 108] | < 1
O=C1NC(C2CCCCO2)CN2CCCc3c(-c4cn[nH]c4)sc1c32 (single isomer, unassigned) [Compound 109] | > 10
O=C1NC(C2CCCCO2)CN2CCCc3c(-c4cn[nH]c4)sc1c32 (single isomer, unassigned) [Compound 110] | < 1
O=C1NC(C2CC(F)(F)C2)CN2CCOc3c(-c4cn[nH]c4)sc1c32 (single isomer, unassigned) [Compound 111, (R or S)-7-(3,3-difluorocyclobutyl)-2-(1H-pyrazol-4-yl)-4,5,7,8-tetrahydro-3-oxa-1-thia-5a,8-diazabenzo[cd]azulen-9(6H)-one] | < 1
O=C1NC(C2CC(F)(F)C2)CN2CCOc3c(-c4cn[nH]c4)sc1c32 (single isomer, unassigned) [Compound 112, (S or R)-7-(3,3-difluorocyclobutyl)-2-(1H-pyrazol-4-yl)-4,5,7,8-tetrahydro-3-oxa-1-thia-5a,8-diazabenzo[cd]azulen-9(6H)-one] | < 1
O=C1NC(C2CC(F)(F)C2)CN2CC(F)(F)Cc3c(-c4cn[nH]c4)sc1c32 (single isomer, unassigned) [Compound 113, (R or S)-7-(3,3-difluorocyclobutyl)-4,4-difluoro-2-(1H-pyrazol-4-yl)-4,5,7,8-tetrahydro-3H-1-thia-5a,8-diazabenzo[cd]azulen-9(6H)-one] | < 1
O=C1NC(C2CC(F)(F)C2)CN2CC(F)(F)Cc3c(-c4cn[nH]c4)sc1c32 (single isomer, unassigned) [Compound 114, (R or S)-7-(3,3-difluorocyclobutyl)-4,4-difluoro-2-(1H-pyrazol-4-yl)-4,5,7,8-tetrahydro-3H-1-thia-5a,8-diazabenzo[cd]azulen-9(6H)-one] | < 1
Cc1n[nH]cc1-c1sc2c3c1CC(F)(F)CN3C[C@H]([C@H]1CCCO1)NC2=O (single isomer, unassigned) [Compound 119] | < 1
O=C1N[C@@H]([C@@H]2CCCO2)CN2CC(F)(F)Cc3c(-c4cn[nH]c4)sc1c32 (single isomer, unassigned) [Compound 120] | < 1
O=C1N[C@H](C23CCC(CC2)O3)CN2CC(F)(F)Cc3c(-c4cn[nH]c4)sc1c32 (single isomer, unassigned) [Compound 122] | > 10
O=C1NC([C@H]2[C@@H]3COC[C@@H]32)CN2CC(F)(F)Cc3c(-c4cn[nH]c4)sc1c32 (single isomer, unassigned) [Compound 123] | < 1
O=C1NC([C@H]2[C@@H]3COC[C@@H]32)CN2CC(F)(F)Cc3c(-c4cn[nH]c4)sc1c32 (single isomer, unassigned) [Compound 124] | < 1
